Results reported in patent US8198236B2, “Methods and compositions for the treatment of cancer” (Washington University, priority 2007, dated 2012).

B1: Dkk1: Human recombinant DKK1 protein, LRP6-specific ligand and antagonist (protein)
chain: TLNSVLNSNAIKNLPPPLGGAAGHPGSAVSAAPGILYPGGNKYQTIDNYQPYPCAEDEECGTDEYCASPTRGGDAGVQICLACRKRRKRCMRHAMCCPGNYCKNGICVSSDQNHFRGEIEETITESFGNDHSTLDGYSRRTTLSSKMYHTKGQEGSVCLRSSDCASGLCCARHFWSKICKPVLKEGQVCTKHRRKGSHGLEIFQRCYCGEGLSCRIQKDHHQASNSSRLHTCQRH

How the values were obtained:
[1] = mouse, in vivo
Experimental: Hemotoxylin and eosin (H&E) staining was performed on tumor xenograft tissue, skin and intestine harvested at the end of Mesd treatment.
FIG. 24D: H&E staining of tail vertebrae treated with PBS, Mesd or Mesd peptide.

[2] = system: Wnt signaling; test: Wnt signaling in MMTV-Wnt1 tumors (GST-E-cadherin pull-down, c-Myc expression); format: in vivo, mice; details: GST-E-cadherin pull-down and c-Myc expression
Experimental: The GST-E-cadherin pulldown assay was performed as previously described (2). Cells expressing control or LRP6 shRNA were treated with L cells or Wnt3a-conditioned media (CM) for 4 h. Free β-catenin was determined using a GST-E-cadherin pull-down assay. Cells were lysed for 30 minutes at 4° C. Protein concentrations in lysates were quantified, and equal quantities of total proteins from different samples were incubated with GST-E-cadherin Sepharose beads for 4 h at 4° C. After incubation, the beads were washed three times and the bound proteins were eluted and separated via SDS-PAGE. Western blotting was performed using antibody to β-catenin.
In these experiments, mice bearing established MMTV-Wnt1 tumor transplants were divided into three groups (five animals per group) and were i.p. injected with PBS (vehicle), Mesd, or Mesd peptide every other day. Tumor volume was analyzed using caliper measurement. Data represent at least three independent experiments and each time point represents the mean tumor volume±SEM. *p<0.05; **p<0.01. […] Scale bar=50 μm.

[3] = system: MMTV-Wnt1 tumors; test: MMTV-Wnt1 tumor transplant growth in nude mice; format: in vivo; details: i.p. every other day, first dose 15 mg/kg then 10 mg/kg, three weeks
Experimental: Recombinant Mesd protein was prepared as described (Li Y, et al. (2005) J Cell Sci 118(22): 5305-5314). Mesd peptide, […] (SEQ ID NO: 14), was manufactured by Abgent (San Diego). Female athymic nude mice (Taconic) (6-8 weeks old) were used for passaging tumors from MMTV-Wnt1 mice (Taconic). MMTV-Wnt1 tumors were serially passaged in mice by implantation in the mammary fat pad as described (DeAlmeida V, et al. (2007) Cancer Res 67, 5371-5379). Therapeutic agents (200 μL Mesd protein, Mesd peptide or PBS) were administrated i.p. with a first dose of 15 mg/kg, followed by 10 mg/kg (9 more doses). Three groups of mice were treated every other day for three weeks and tumor volumes were measured thrice weekly.
The pharmacokinetics and bioavailability of Mesd and Mesd peptide ([…] (SEQ ID NO: 14)) were first investigated (FIG. 23). Cells from MMTV-Wnt1 tumors were injected into the mammary fat pads of female nude mice, and the resultant mice were subsequently randomly grouped when the mean tumor volume reached ca. 200 mm^3. […]
In these experiments, mice bearing established MMTV-Wnt1 tumor transplants were divided into three groups (five animals per group) and were i.p. injected with PBS (vehicle), Mesd, or Mesd peptide every other day. Tumor volume was analyzed using caliper measurement. […]

[4] = mouse, in vivo; remark: listed apart in the source
Experimental: In experiments shown in FIG. 23, pharmacokinetics of Mesd peptide and Mesd were examined. FIG. 23A: Amount of Mesd in serum following a single dose of protein administration. Mice were dosed at 5, 10, 20 mg/kg of Mesd via i.p. and the serum samples were collected from individual mice at the indicated time points. The levels of Mesd in serum were quantified by comparison to Mesd pure protein with known concentrations in Western blot analysis. Values are the average of triple determinations with S.D. indicated by error bars. […] Samples were obtained by terminal bleed under anesthesia at each of the indicated time points (N=3 animals per time point). Radioactivity was measured using a gamma counter and DPM converted to mass units/mL blood using the specific activity (DPM/mass) of each test substance. Data are plotted as mass U/mL of test substance with standard deviation indicated by error bars.

[5] = system: HCC1187 cells; test: MTT assay of Wnt3a CM-stimulated growth of HCC1187 cells; format: cell-based, human; details: Dkk1 10 nM, 24 h
Experimental: Cell growth and cell proliferation were measured by MTT assay (Promega) and BrdU incorporation using the BrdU ELISA kit (Roche Molecular Systems) according to the manufacturers' instructions. […] Breast cancer cells expressing control or LRP6 shRNA were seeded into 48-well plates. MTT-labeling reagent was added to each well 24 h later, and plates were incubated at 37° C. for 4 h. After the incubation period, the formazan crystals were dissolved in an MTT solubilization reagent and the resulting color was quantified spectrophotometrically. In some experiments, cell proliferation was measured by BrdU incorporation using the BrdU ELISA kit (Roche Molecular Systems) according to the manufacturer's instructions. Briefly, cancer cells expressing control or LRP6 shRNA were plated on 96-well plate. Cells were incubated with BrdU for 24 h, and the newly synthesized BrdU-DNA was then determined by colorimetry using an ELISA reader. All experiments were performed three times in triplicate.
In FIG. 20, * indicates p<0.05 compared to L cell CM; ** indicates p<0.01 compared to L cell CM.

[6] = system: Wnt signaling; test: TCF/LEF-luc reporter assay in Wnt-3A-treated HEK293 cells; format: cell-based; details: Wnt3A conditioned medium plus Dkk1 at 10 nM, 16 hours at 37° C.
Experimental: HEK293 cells were plated into six-well plates. For each well, 0.1 μg of the TOP-FLASHTCF luciferase construct (Upstate Biotechnology) was cotransfected with 0.8 μg Mesd-expressing vector, 0.8 μg Mesd mutant-expressing vector, or empty vector. A β-galactosidase-expressing vector (Promega, Madison, Wis.) was included as an internal control for transfection efficiency. After 48 hours, cells were lysed and both luciferase and β-galactosidase activities were determined with enzyme assay kits (Promega). The luciferase activity was determined with a luminometer using the Dual Luciferase Assay system (Promega). Luciferase activity was normalized to the activity of the β-galactosidase.
In these experiments, transfected cells were treated without Wnt-3A or with Wnt-3A plus the indicated inhibitors (Mesd and/or Dkk1) for 16 hours at 37° C. Wnt signaling was measured by quantifying the luciferase activity using a live cell imaging system.

Molecule	Adverse effect on small intestine (gross examination) [1]	Architecture of gastrointestinal compartments and skin (H&E) [1]	Bone lesions or outgrowths in tail vertebrae [1]	General health and body weight of treated mice [1]	Wnt signaling in tumors compared to control treatment [2]	Tumor growth (tumor volume, caliper) [3]	Bioavailability [4]	Distribution into tissues [4]	Effect on Wnt3a CM-increased cell growth [5]	Inhibition of Wnt signaling (luciferase activity) [6]
KGGGSKEKNKTKQDKGKKKKEGDLKSRSSKEENRAGNK [Mesd peptide]	no significant adverse effect	morphologically normal	no significant bone lesions or outgrowths	grossly healthy and maintain their weights	decreased Wnt signaling	significantly inhibit tumor growth	60%	rapid and widespread	–	–
B1	–	–	–	–	–	–	–	–	abolished	more potent inhibitor
